Laboratory results taken from patent US5916915A, “Water-in-stable L-ascorbic acid derivative and a method for preparation thereof, and a skin-whitening cosmetic composition containing the same” (priority 1997, dated 1999).
“Also recorded” adds a separate entry of the source.

What was measured:
[1] = tested on: eye of New Zealand White rabbits; assay: Eye Irritation Test; assay type: in vivo; conditions: rabbit
Experimental: Test was carried out using the nine(9) of New Zealand White rabbits.
0.1 ml of AsA-APPA of Preparation Ex. 2 was diluted with physiological saline to give 10% of test sample. This test sample was dropped onto the right eye of each rabbit, taking the left eye as a control. After 20~30 seconds, only three(3) rabbits of them were washed sufficiently with the sterilized saline.

skin of healthy females [2] = assay: Human Patch Test; assay type: in vivo
Experimental: Test was carried out for thirty(30) of healthy females aging 20~30 years according to CTFA Guideline(The Cosmetic, Toiletry and Fragrance Association. Inc. Washington, D.C., 20023, 1991).
The back of the subjected was washed with 70% of ethanol and dried, and then, applied with a finn chamber containing 20 μl of patch base incorporating 10% of AsA-APPA of Preparation Ex. 2. The finn chamber was fixed to the tested site using a micropore tape. 24 hours later, the tape and the chamber were removed, and the tested site was marked with marking pen. After 24 hours or 48 hours, skin responses of the tested sites were observed and skin irritation were evaluated according to ICDRG(International Contact Dermatitis Research Group)'s criterion.
*Average Response = Grade of the sample/4(Maximum grade) × 30(Total

skin of healthy females [3] = assay: Repeat Insult Human Patch Test; assay type: in vivo
Experimental: Test was carried out for twenty(20) of healthy females aging 20~30 years according to CTFA Guideline(The Cosmetic, Toiletry and Fragrance Association. Inc. Washington, D.C., 20023, 1991).
The back of the subjected was washed with 70% of propanol and dried, and then, applied with a finn chamber containing 20 μl of patch base incorporating 10% of AsA-APPA of Preparation Ex. 2. Applications were repeated every 24 hours for 3 weeks (Induction Period). After about 2 weeks, Challenge Insult Patch was carried out. At this step, the sites tested during the induction period and new sites were applied with the patches for 48 hours. […] And, skin irritation was evaluated according to ICDRG(International Contact Dermatitis Research Group)'s criterion.

ICR mice = assay: Acute Oral Toxicity Test; assay type: in vivo
Experimental: (§1) 10 ml/kg of AsA-APPA of Preparation Ex. 2 was diluted with physiological saline to give 50% of test sample. This test sample was orally administrated into the ten(10) of ICR mice(five males and five females) weighing 20~33 g (administrated amount of AsA-APPA: 5 g/kgweight). As a control, 10 ml/kg of physiological saline was orally administrated into the ten(10) of ICR mice(five males and five females) weighing 20~33 g (administrated amount of AsA-APPA: 0 g/kgweight).
(§2) At that day, general appearance was observed every hour for 6 hours. And, from the next day to 14 days, every day, were observed general appearance(clinical symptoms), toxic symptoms, death and the like. Further, change of weight was measured at 1, 3, 7 and 14 days.
(§3) Any of the mice dead during observation period were immediately subjected to autopsy, and the survival mice were subjected to autopsy after observation period.

Acute Oral Toxicity Test = assay type: in vivo, ICR mice; conditions: mouse, in vivo, po, acute oral, ICR mice, Litchfield-Wilcoxon's method; read-out: LD50 (lethal dose)
Experimental: as §1, §2, §3

fibroblast = assay: Proliferation of fibroblast (MTT method); assay type: cell-based; conditions: as low as, DMEM
Experimental: The skin obtained from new epidermal tissue was treated with Type 1 collagenase to remove epidermis. The obtained fibroblast was cultured on Dulbecco's Modified Eagle's Media(DMEM).
Amount of fibroblast was measured by way of MTT method.

[4] = Stability of AsA-APPA in pH 7 buffer at 50° C. (residual ratio by UV absorbance); assay type: physicochemical
Experimental: L-Ascorbic acid and AsA-APPA produced in Preparation Ex. 2 were dissolved in buffer solutions of pH 7 to concentrations of 50 μM, respectively, and then maintained in a thermostat of 50° C. At constant intervals, UV absorbances were measured at 259 nm for AsA-APPA and at 266 nm for L-ascorbic acid, to evaluate the stabilities of the test samples as residual ratio(%).

skin of Guinea pigs = assay: Skin Sensitization Test (Guinea Pig Maximization test); assay type: in vivo, Guinea pigs (Hartley Albino Guinea Pig)
Experimental: Test was carried out for six(6)(three males and three females) of Guinea pigs(Hartley Albino Guinea Pig) weighing 300~360 g according to Maggnusson and Kligman's procedure (Guinea Pig Maximization test).
In order to determine the concentrations of the test samples to be applied in Induction test for light irritation and Challenge test for no irritation, for three(3) of Guinea pigs for each test, primary irritations were taken with 6.25%, 12.5% and 25.0% of the test samples, respectively. For each animal, each site (2.5×2.5 cm) of right and left of the back was treated with three concentrations of the test samples in an amount of 0.5 ml/site of AsA-APPA, and then covered with a gauze, which was fixed using an non-irritative tape, for 24 hours. Next, 0.1 ml of 25% of AsA-APPA was intradermally injected to each of two pigs(one male and one female) using 26-gauge 1/2-inched needle. 7 Days later, the same sites were depilated and pretreated with 10% of SLS in petrolatum. Then, each tested site was treated with 0.5 ml/site of AsA-APPA, and then covered with a gauze, which was fixed using an non-irritative tape, for 48 hours. 2 Weeks later, the left back of the depilated pig was treated with the test sample and the right back was treated with physiological saline. 24 Hours later, the tested sites were washed with physiological saline.
As a control, test was carried out using physiological saline, instead of the test sample, in the same procedure.

[5] = 10% AsA-APPA, text and Table 5, unit not given

For NCCCOP(=O)(O)OC1=C(O)[C@@H]([C@@H](O)CO)OC1=O [AsA-APPA, 2-(3-aminopropanephosphoric acid)-L-ascorbate], the “Evaluation of eye irritation” value [1] was “No irritative”, the “eye irritation on cornea, iris and conjunctiva” value ([1]; after 24 hours or 48 hours, 10% test sample) was “no eye irritation on cornea, iris and conjunctiva was observed” and the “Irritation rate of eye mucos (M.O.I)” value ([1]; washed and non-washed cases) was 0. For the same compound, the “Evaluation of human patch test” value (skin of healthy females [2]; 10% AsA-APPA) was “primary irritative response, except for 1% of erythema, was hardly observed; also recorded: No irritative”, the Average response (skin of healthy females [2]; [5]) was 0.42 and the Response (skin of healthy females [2]; 24 hr., N = 30, 10% AsA-APPA, erythema) was 1%. For the same compound, the “irritation after 48 hours” value (skin of healthy females [2]; 48 hours, 10% AsA-APPA) was “all the irritation fade away”, the Response (skin of healthy females [2]; 48 hr., N = 30, 10% AsA-APPA) was 0% and the “Average response” value (skin of healthy females [2]; N = 30, 10% AsA-APPA, Table 3) was 0.42%. For the same compound, the “Evaluation of repeat insult human patch test” value (skin of healthy females [3]; 10% AsA-APPA) was “No irritative”, the “repeat irritation or sensitive irritation” value (skin of healthy females [3]; 10% AsA-APPA) was “no repeat irritation or no sensitive irritation was observed” and the “Average response, challenge period” value (skin of healthy females [3]; 10% AsA-APPA, unit not given) was 0. For the same compound, the “Average response, induction period” value (skin of healthy females [3]; [5]) was 0.14, the “Average response, challenge period” value (skin of healthy females [3]; n = 20, 10% AsA-APPA, Table 4) was 0% and the “Average response, induction period” value (skin of healthy females [3]; n = 20, 10% AsA-APPA, Table 4) was 0.14%. For the same compound, the “Induction Period response” value (skin of healthy females [3]; week 1, 10% AsA-APPA) was 1, the Evaluation (ICR mice; Acute oral toxicity test) was “Innoxious” and the “LD50 (lethal dose)” value (ICR mice; acute oral, ICR mice, Litchfield-Wilcoxon's method, 20160 min) was greater than 5000 mg/kg. The autopsy findings (ICR mice; oral, 5 g/kg) was “no abnormal symptom was observed”, the “weight changes in comparison to the control” value (ICR mice; oral, 5 g/kg, 1, 3, 7 and 14 days) was “no significant difference” and the death (ICR mice; oral, 5 g/kg, 14 days) was “no dead mice”. The LD50 at 336 h (Acute Oral Toxicity Test) was 5000 mg/kg, the “concentration showing effective fibroblast proliferation” value (fibroblast) was 10 mM and the “stability in neutral aqueous solution” value ([4]; pH 7, 50° C.) was “very stable”. The remaining at 0.5 h, 50 µM ([4]; ph 7 buffer, 30 min., pH 7, 50 μM, 50° C.) was 100%, the remaining at 1 h, 50 µM ([4]; ph 7 buffer, 1 hr., pH 7, 50 μM, 50° C.) was 100% and the remaining at 3 h, 50 µM ([4]; ph 7 buffer, 3 hr., pH 7, 50 μM, 50° C.) was 100%. For the same compound, the remaining at 6 h, 50 µM ([4]; ph 7 buffer, 6 hr., pH 7, 50 μM, 50° C.) was 100%, the remaining at 24 h, 50 µM ([4]; ph 7 buffer, 24 hr., pH 7, 50 μM, 50° C.) was 99.1% and the remaining at 144 h, 50 µM ([4]; ph 7 buffer, 6 days, pH 7, 50 μM, 50° C.) was 95.5%. For the same compound, the remaining at 240 h, 50 µM ([4]; ph 7 buffer, 10 days, pH 7, 50 μM, 50° C.) was 93.5%, the “Evaluation of skin sensitization” value (skin of Guinea pigs; Guinea pig) was “very safe to the skin” and the “skin abnormality such as erythema and edema” value (skin of Guinea pigs; Guinea pig, 24, 48 and 72 hours after removing the patches) was “no skin abnormality such as erythema and edema was observed”. The “Kligman's grade” value (skin of Guinea pigs; Guinea pig, Kligman's criterion) was 1.
